Laboratory results from patent publication US10695319B2, “Glucose conjugates of triptolide, analogs and uses thereof” (The Johns Hopkins University, priority 2016, dated 2020).

Tests used:
[1] = system: luciferase-expressing prostate cancer line PC3/ML; assay: Metastatic prostate cancer model, bioluminescent imaging; assay type: in vivo, NOD/SCID/IL2rγ^null (NSG) mice; settings: triptolide 0.2 mg/kg, G4 1 mg/kg
Description: FIG. 3. Effects of triptolide and glucose-triptolide conjugate G4 in a metastatic mouse prostate cancer model. The injected prostate cancer cells expressed luciferase, which was detected by imaging of live animals.
(§1) The in vivo antitumor activity of the glucose-triptolide conjugate G4 was determined using an established metastatic prostate cancer model (Reference 1). In this model, the luciferase-expressing prostate cancer line PC3/ML was injected into NOD/SCID/IL2rγ^null (NSG) mice through the tail vein. The metastasis of the injected prostate cancer cells into liver, kidney, lung and bone can be monitored in live animals by bioluminescent imaging (BLI). It was shown that this is a reliable model with reproducible liver metastasis and all animals succumb by Week 7 after injection of cells (or Week 4 after initiation of treatments). […] Three weeks after cell injection, each compound was given once daily by IP at those doses for a total of 4 weeks. The surviving animals were continuously monitored upon termination of compound administration.

[2] = Preliminary experiments on tolerable treatment dose; assay type: in vivo; settings: mice
Description: as §1

## CC(C)[C@]12O[C@H]1[C@@H]1O[C@]13[C@]1(O[C@H]1C[C@H]1C4=C(CC[C@@]13C)C(=O)OC4)[C@@H]2O [triptolide]
[1]; after 4 weeks of once daily IP, till end of experiment
  tumor after termination of compound administration: tumors immediately returned
[1]; once daily IP for 4 weeks, BLI
  tumor cells at the end of Week 4 of treatment: undetectable tumor cells
[2]
  tolerable treatment dose: 0.2 mg/kg
